Reference: patent US8999374B2, “Method of inhibiting salmonella in livestock and poultry” (priority 2002, dated 2015)

Tested on: Salmonella enteritidis KTE-61 strain
Assay: Inhibition test of salmonella/yeast agglutination
Assay type: cell-based
Method: Inhibition tests of salmonella agglutination were carried out on various saccharides as follows. […] Preliminary test was carried out for observing by stereoscopic microscope (OLYMPUS Co., Ltd) that agglutination occurs in this liquid mixture.
Next, in a similar manner to the aforementioned preliminary test, with the use of aqueous solution of saccharide where the aforementioned taken β-1,4-mannobiose and a mannose reagent (D-Mannose; Wako Pure Chemical Industries, Ltd.) were used instead of distilled water, the minimum concentration for inhibiting agglutination of liquid mixture (the minimum concentration for inhibiting agglutination) was obtained by varying the concentration, respectively. The actual minimum concentration for inhibiting the agglutination in liquid mixture and the relative concentration (ratio of concentration) when the minimum concentration for inhibiting agglutination of mannose is set 1 are shown in table 1.

OC[C@H]1O[C@@H](O[C@H]2[C@H](O)[C@H](O)C(O)O[C@@H]2CO)[C@@H](O)[C@@H](O)[C@@H]1O (stereo partly drawn) [Mannobiose, β-1,4-mannobiose]
minimum concentration for inhibiting agglutination, Actual Concentration (Salmonella enteritidis KTE-61 with yeast Candida albicans KI-102001, concentration in liquid mixture): 1290 µg/mL
Relative Concentration (Based on Mannose) (minimum concentration for inhibiting agglutination, mannose set to 1): 2.173
